The source of these data is patent US6511804B1, “Selective assay for determining the identity of live microorganisms in a mixed culture” (priority 1998, dated 2003).

The subject of one assay is P. mirabilis. Kind of assay: Ampicillin resistance of the P. mirabilis strain. It counts as cell-based, Proteus mirabilis. The settings on record: P. mirabilis strain used in these studies.
For assay [1], the system named is E. coli (C600). Kind of assay: Ampicillin sensitivity of E. coli C600 as stated. Type of assay: cell-based.
For the next assay, the system named is E. coli. It counts as cell-based.
The test system of assay [2] is E. coli (C600). Kind of assay: Mixed culture P. mirabilis:E. coli 50:1 with ampicillin, BrdU immunocapture and FlaA PCR. The settings on record: 50:1 P. mirabilis:E. coli; L-broth with 5, 10, or 20 μg/ml ampicillin. It counts as cell-based.
The next assay has as its system E. coli strain W3110. Kind of assay: Growth curves of E. coli strain W3110 in L-broth with antibiotic or BrdU. Type of assay: cell-based. As to conditions: FIG. 3.
For assay [3], the system named is H. actinomycetemcomitans (ATCC No. 43718). Kind of assay: BrdU immunocapture/PCR antibiotic sensitivity of H. actinomycetemcomitans. The settings on record: anaerobic culture; FIG. 8. It counts as cell-based, Haemophilus actinomycetemcomitans. The method, then: H. actinomycetemcomitans is reported to be a human pathogen, and has been implicated in juvenile periodontitis. In these studies, a culture of H. actinomycetemcomitans (ATCC No. 43718; previously known as Actinobacillus actinomycetemcomitans) was grown to saturation under anaerobic conditions as in part A, above, except that hemin was not added to the medium. The culture was diluted 1:10 into fresh media, and grown for a further 4 hours under anaerobic conditions. At this point, the culture was divided into aliquots and subjected to the same testing protocol as was employed in part A of this Example, except that after the BrdU was added, the 2 hour incubation was followed for convenience by overnight storage under refrigeration at 4° C. The next day, the aliquoted cultures were lysed by the NaOH lysis protocol described above, PCR was performed, and the capture probe set forth in Table 1 for this organism was employed.

Assay [4] has as its system T. denticola (ATCC number 35405). Kind of assay: BrdU immunocapture/PCR antibiotic sensitivity of Treponema denticola. The settings on record: FIG. 9; for BrdU incorporation / immunocapture PCR signal: T. denticola; for sensitivity or resistance of T. denticola: anaerobic culture, no negative immunocapture control. Type of assay: cell-based. The method, then:
Treponema denticola was also studied using the invention. In these studies, a culture of T. denticola (ATCC number 35405) was inoculated into fresh media and grown anaerobically for 1 day in NOS media (ATCC media formulation 1494). The cultures were grown as in Part A of this Example, except that the cultures were incubated for about 8 hours prior to the addition of BrdU, they were incubated overnight after the addition of BrdU, and the samples were analyzed the next day. The PCR was conducted in the manner described above, except that a GroEL primer set was not available and a primer set for the FlgE gene (endoflagellar subunit protein) referred to FlgE001 and FlgE006 was substituted. These primers were expected to give rise to a 542 bp PCR fragment.

The subject of assay [5] is Porphyromonas gingivalis (ATCC No. 33277). Kind of assay: BrdU immunocapture/PCR antibiotic sensitivity of Porphyromonas gingivalis. The settings on record: anaerobic culture; 2 hours antibiotic then 2 hours BrdU; FIG. 7.
In assay [6] the test system is E. coli strain NK5830. Kind of assay: BrdU immunocapture/PCR antibiotic sensitivity assay, strain NK5830. As to conditions: antibiotic 100 μg/ml, FIG. 4.
For assay [7], the system named is E. coli strain NK5830. Type of assay: cell-based. The settings on record: antibiotic at final concentration 100 μg/ml, FIG. 3.

Where two headings read alike, the source gives them in different places.

For `CC1(C)S[C@@H]2[C@H](NC(=O)[C@H](N)c3ccccc3)C(=O)N2[C@H]1C(=O)O` [Ampicillin], the “ampicillin concentration to which the strain is resistant” value in the assay with P. mirabilis is “over 400 μg/ml”. In the assay with E. coli (C600) [1], the sensitivity to ampicillin entry was “extremely sensitive”. In the assay on E. coli (E. coli strain W3110), the “detectable BrdU compared to the control” value is listed as “lack of detectable BrdU compared to the control” and the “effect on cells (lysis)” value is on record as “lysed”. Besides, the “PCR products obtained (E. coli 1 kb / P. mirabilis 800 bp)” value with E. coli (C600) [2] is reported as “only the P. mirabilis PCR product”.
Consider `O=c1[nH]c(=O)n([C@H]2C[C@H](O)[C@@H](CO)O2)cc1Br` [BrdU, 5-bromo-2′-deoxyuridine], for which, in the assay on E. coli strain W3110 (BrdU added at 2.5 hours), the “growth profile after addition of BrdU” value is “did not change the growth profile”.
In the case of `O=C(N[C@H](CO)[C@H](O)c1ccc([N+](=O)[O-])cc1)C(Cl)Cl` [Chloramphenicol], in the assay on E. coli, the “effect on the growth of E. coli” value is “significantly reduced growth”.
Take `[H]/N=C(/N)N[C@H]1[C@H](O)[C@@H](O)[C@H](O[C@@H]2O[C@@H](C)[C@](O)(C=O)[C@H]2O[C@@H]2O[C@@H](CO)[C@H](O)[C@@H](O)[C@@H]2NC)[C@@H](N/C(N)=N\[H])[C@@H]1O` [Streptomycin]: the “effect on the growth of E. coli” value in the assay on E. coli is “little or no effect”.
For the compound `Cc1ncc([N+](=O)[O-])n1CCO` [metronidazole], the “sensitivity or resistance of H. actinomycetemcomitans” value in assay [3] was “resistance”. Besides, in assay [4], the “BrdU incorporation / immunocapture PCR signal” value is recorded as “level of BrdU incorporation is at background” and the “sensitivity or resistance of T. denticola” value is on record as “sensitive”. Also, the “sensitivity or resistance of P. gingivalis” value in [5] is “sensitive”.
For the compound `CCn1cc(C(=O)O)c(=O)c2ccc(C)nc21` [nalidixic acid], the “immunocapture/PCR signal (BrdU-labeled DNA, gel)” value with E. coli strain NK5830 [6] is on record as “strong positive signal”. In addition, in the assay with E. coli strain NK5830 [7], the “growth (growth curve)” value is listed as “did not cause any growth inhibition”. For the same compound, the “sensitivity or resistance of H. actinomycetemcomitans” value in assay [3] was “sensitivity”. Moreover, in assay [4], the “BrdU incorporation / immunocapture PCR signal” value is “equivalent to the positive control” and the “sensitivity or resistance of T. denticola” value was “resistant”. The “sensitivity or resistance of P. gingivalis” value in [5] is listed as “resistant”. Besides, the “effect on the growth of E. coli” value with E. coli is “greatest effect”. In addition, the “growth (growth curve)” value in the assay on E. coli strain W3110 (antibiotic at final concentration 100 μg/ml) is given as “inhibited growth”.
Consider gentamycin, for which the “effect on the growth of E. coli” value in the assay on E. coli (compared to controls grown in the absence of the antibiotic) is recorded as “greatest effect”.
